One test has as its target T1, human CB2 (hCB2) (Homo sapiens, UniProt P34972).
T1 construct: (cDNA clone) CNR0200000
Description: 35S GTPγS binding assay, hCB2 agonist. It counts as biochemical. In short, it runs like this:
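Agonist-stimulated [35S]GTPγS (0.1 nM) binding measured by scintillation proximity after 90 min at room temperature. Reaction buffer: 50 mM HEPES pH 7.4, 100 mM NaCl, 5 mM MgCl2, 0.001% saponin plus 20 uM GDP. Membranes (5 μg) came from transfected cells expressing hCB2 cDNA (pcDNA3.1+ vector).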
On the technique in general: GTPγS resists hydrolysis and so accumulates on activated G proteins.

The target of the next test is T2, human CB2 receptors (Homo sapiens, UniProt P34972).
T2 construct: (cDNA clone) CNR0200000
T2 sequence (P34972 whole entry): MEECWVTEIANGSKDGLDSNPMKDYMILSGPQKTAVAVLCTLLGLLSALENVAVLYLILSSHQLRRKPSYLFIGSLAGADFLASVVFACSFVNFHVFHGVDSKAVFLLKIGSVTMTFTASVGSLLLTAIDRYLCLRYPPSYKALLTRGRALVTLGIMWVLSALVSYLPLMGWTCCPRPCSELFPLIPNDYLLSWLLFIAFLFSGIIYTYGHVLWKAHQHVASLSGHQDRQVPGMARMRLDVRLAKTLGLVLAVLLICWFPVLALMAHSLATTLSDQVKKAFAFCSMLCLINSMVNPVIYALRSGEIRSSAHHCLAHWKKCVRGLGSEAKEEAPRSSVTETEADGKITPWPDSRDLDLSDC
Briefly: cAMP assay in HEK-293 cells, hCB2 agonist. It counts as cell-based. In short, it runs like this:
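Stable hCB2 HEK-293 cells in HBSS/10 mM HEPES/0.1% fatty-acid-free BSA incubated 30 min at 37° C with compound; forskolin 90 uM in 3× compound mix.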

Test [1] deals with T3, recombinant human cannabinoid receptor CB1 (Homo sapiens, UniProt P21554).
T3 construct: (cDNA clone) CNR01L000
T3 sequence (P21554 whole entry): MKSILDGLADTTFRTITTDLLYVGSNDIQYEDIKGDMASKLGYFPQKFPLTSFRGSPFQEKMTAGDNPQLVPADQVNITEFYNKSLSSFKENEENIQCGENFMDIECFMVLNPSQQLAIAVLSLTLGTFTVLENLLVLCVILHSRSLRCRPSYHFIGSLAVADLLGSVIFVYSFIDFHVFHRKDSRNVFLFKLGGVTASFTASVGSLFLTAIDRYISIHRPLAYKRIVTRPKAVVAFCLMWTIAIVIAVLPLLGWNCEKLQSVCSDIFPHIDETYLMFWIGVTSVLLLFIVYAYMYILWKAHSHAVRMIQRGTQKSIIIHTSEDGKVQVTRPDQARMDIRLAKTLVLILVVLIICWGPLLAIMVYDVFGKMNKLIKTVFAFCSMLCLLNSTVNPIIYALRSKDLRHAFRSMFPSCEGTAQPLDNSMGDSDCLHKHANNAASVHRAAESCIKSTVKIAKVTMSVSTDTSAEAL
Briefly: Cannabinoid receptor radioligand binding assay, [3H]-CP 55,940 displacement, hCB1. The gist of the method: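 Displacement of 0.5 nM [3H]-CP 55,940 (1 μM unlabeled CP 55,940 for nonspecific) measured by filtration and scintillation counting. Binding ran 90 min at room temperature in pH 7.5 Tris buffer with 0.1% fatty-acid-free BSA, using recombinant hCB1 HEK-293 membranes at 2-10 μg protein.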

Drawing on US20130029970A1 (priority 2009, published 2013), this text covers EC50 and IC50 for five compounds.

By EC50 is commonly meant the concentration that produces a half-maximal response. A higher EC50 goes with a less potent agent. The term IC50 denotes the concentration at which inhibition is half-maximal.

Where only a bound is given, the exact number is not on record here.

T1 sequence (P34972 whole entry): as the sequence (P34972 whole entry) above

Take `CCOc1ccc(C(=O)c2cc3cc(C)n(CCN4CCOCC4)c3s2)cn1` [Compound 150, (6-Ethoxypyridin-3-yl)(5-methyl-6-(2-morpholinoethyl)-6H-thieno[2,3-b]pyrrol-2-yl)methanone]: the values for the EC50 on human CB2 (hCB2) and on human CB2 receptors were 100 to 1000 nM and less than 100 nM, respectively. Moreover, the IC50 in test [1] was more than 10000 nM.
In the case of `COCCN(C)CCn1c(C)cc2cc(C(=O)c3ccc(OC)nc3)sc21` [Compound 157], the results for the EC50 on human CB2 (hCB2) and on human CB2 receptors were 1000 to 10000 nM and less than 100 nM, respectively. In addition, the IC50 in test [1] lay in the range of 100 to 1000 nM.
`COc1ccc(C(=O)c2cc3cc(C)n(CC(OC)OC)c3s2)cn1` [Compound 161, (6-(2,2-dimethoxyethyl)-5-methyl-6H-thieno[2,3-b]pyrrol-2-yl)(6-methoxypyridin-3-yl)methanone]: the EC50 was 1000 to 10000 nM on human CB2 (hCB2) and 100 to 1000 nM at human CB2 receptors. Further, in test [1], the IC50 lay within 100 to 1000 nM.
On to `Cc1cc2cc(C(=O)c3ccc(O)cc3F)sc2n1CCN1CCOCC1` [Compound 165, (2-fluoro-4-hydroxyphenyl)(5-methyl-6-(2-morpholinoethyl)-6H-thieno[2,3-b]pyrrol-2-yl)methanone], for which the EC50 was 100 to 1000 nM on human CB2 (hCB2) and less than 100 nM at human CB2 receptors. For the same compound, in test [1], the IC50 was 100 to 1000 nM.
For the compound `COc1ccc(C(=O)c2cc3cc(C)n(CC4CCC(F)(F)CC4)c3s2)cn1` [Compound 170, (6-((4,4-difluorocyclohexyl)methyl)-5-methyl-6H-thieno[2,3-b]pyrrol-2-yl)(6-methoxypyridin-3-yl)methanone], the EC50 on human CB2 (hCB2) and at human CB2 receptors was less than 100 nM in each case. Moreover, the IC50 in test [1] was less than 100 nM.
